In the supplement of paper PMC10331698:
± gives the standard deviation of the averaged measurements.

Assays:
Test in all cases: level (log10 ratio to DMSO vehicle control); higher = higher biomarker level / cell amount than vehicle control
[1] = compound: Cc1ccc(S(=O)(=O)OCC(F)(F)C(F)(F)C(F)(F)C(F)(F)C(F)(F)C(F)F)cc1 [1H,1H,7H-Perfluoroheptyl 4-methylbenzenesulfonate]; conditions: in DMSO
Experimental: (§1)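 BioMAP Diversity Plus panel of 12 human primary cell co-culture systems (3C, 4H, LPS, SAg, BT, BF4T, BE3C, CASM3C, HDF3CGF, KF3CT, MyoF, Mphg). Compounds were added 1 h before stimulation and left for 24 h (MyoF 48 h; BT 72 h for soluble read-outs or 6 d for IgG). Biomarkers were read by ELISA, cytotoxicity by SRB, PBMC viability and proliferation by Alamar Blue. Each well value was divided by the mean of 8 DMSO control wells on the same plate and log10 transformed; duplicate blinded samples were tested at 4 concentrations.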

[2] = compound: FC(F)(I)C(F)(F)C(F)(F)C(F)(F)C(F)(F)C(F)(F)I [1,6-Diiodoperfluorohexane]; conditions: 6700 nM; in DMSO
Experimental: as §1

Perfluoropinacol = compound: OC(C(F)(F)F)(C(F)(F)F)C(O)(C(F)(F)F)C(F)(F)F [Perfluoropinacol]; conditions: in DMSO
Experimental: as §1

[3] = compound: OCCCC(F)(F)C(F)(F)C(F)(F)C(F)(F)C(F)(F)C(F)(F)C(F)(F)C(F)(F)F [3-(Perfluorooctyl)propanol]; conditions: 6700 nM; in DMSO
Experimental: as §1

[4] = compound: FC(F)(F)COC(OCC(F)(F)F)OCC(F)(F)F [tris(Trifluoroethoxy)methane]; conditions: in DMSO
Experimental: as §1

[5] = compound: C=CC(=O)OCC(F)(F)C(F)(F)C(F)(F)C(F)(F)C(F)(F)C(F)(F)C(F)(F)C(F)F [1H,1H,9H-Perfluorononyl acrylate]; conditions: in DMSO
Experimental: as §1

[6] = compound: C=CC(=O)OCC(F)(F)C(F)(F)C(F)(F)C(F)(F)COC(=O)C=C [1H,1H,6H,6H-Perfluorohexane-1,6-diol diacrylate]; conditions: 6700 nM; in DMSO
Experimental: as §1

[7] = compound: OCC(F)(F)C(F)(F)C(F)(F)C(F)(F)C(F)(F)C(F)(F)F [6:1 Fluorotelomer alcohol]; conditions: in DMSO
Experimental: as §1

[8] = compound: FC(F)(F)C(F)(F)C(F)(F)C(F)(F)CCI [1H,1H,2H,2H-Perfluorohexyl iodide]; conditions: in DMSO
Experimental: as §1

Test System	level (log10) ([1]; 6700 nM)	level (log10) ([1]; 20000 nM)	level (log10) ([1]; 60000 nM)	level (log10) [2]	level (log10) (Perfluoropinacol; 6700 nM)	level (log10) (Perfluoropinacol; 20000 nM)	level (log10) [3]	level (log10) ([4]; 6700 nM)	level (log10) ([4]; 20000 nM)	level (log10) ([4]; 60000 nM)	level (log10) ([5]; 6700 nM)	level (log10) ([5]; 20000 nM)	level (log10) ([5]; 60000 nM)	level (log10) [6]	level (log10) ([7]; 6700 nM)	level (log10) ([7]; 20000 nM)	level (log10) ([7]; 60000 nM)	level (log10) ([8]; 6700 nM)	level (log10) ([8]; 20000 nM)	level (log10) ([8]; 60000 nM)
CASM3C:CD141/Thrombomodulin	-0.002 ± 0.0014	0.032 ± 0.0085	0.067 ± 0.041	0.008	-0.0085 ± 0.021	0.0575 ± 0.0035	0.0455 ± 0.019	-0.0075 ± 0.0092	-0.006 ± 0.025	-0.0125 ± 0.019	-0.014 ± 0.069	-0.0095 ± 0.0078	-0.0175 ± 0.033	0.0295 ± 0.016	0.0105 ± 0.044	0.023 ± 0.0028	0.023 ± 0.0099	-0.0085 ± 0.021	-0.009 ± 0.014	0.0275 ± 0.049
BE3C:tPA	-0.002 ± 0.044	-0.032 ± 0.054	-0.013 ± 0.034	-0.032	-0.0455 ± 0.0078	-0.224 ± 0.012	0.0365 ± 0.012	-0.0075 ± 0.013	-0.028 ± 0.024	-0.0125 ± 0.021	0.0175 ± 0.018	0.0315 ± 0.0035	0.026 ± 0.0099	-0.077 ± 0.0099	0.0055 ± 0.012	-0.0145 ± 0.019	-0.0075 ± 0.0021	-0.001 ± 0.0028	0.0175 ± 0.019	0.051 ± 0.014
HDF3CGF:Collagen I	0.025 ± 0.051	0.0485 ± 0.066	0.027 ± 0.052	0.053	-0.0205 ± 0.0092	-0.0685 ± 0.015	0.161 ± 0.077	0.0165 ± 0.061	0.0025 ± 0.042	0.0345 ± 0.03	-0.0115 ± 0.016	-0.0075 ± 0.056	-0.0605 ± 0.11	-0.013 ± 0.048	-0.01 ± 0.0085	-0.0005 ± 0.005	0.0145 ± 0.039	0.004 ± 0.047	-0.0205 ± 0.063	0.015 ± 0.11
HDF3CGF:CCL2/MCP-1	-0.0645 ± 0.026	-0.108 ± 0.013	-0.091 ± 0.0042	-0.68	0.0595 ± 0.0064	0.09 ± 0.0085	-0.284 ± 0.03	0.0035 ± 0.06	0.006 ± 0.051	0.0165 ± 0.035	-0.0315 ± 0.03	-0.045 ± 0.03	-0.0815 ± 0.046	-0.437 ± 0.0028	-0.014 ± 0.028	-0.013 ± 0.057	-0.044 ± 0.082	-0.0045 ± 0.005	0.0155 ± 0.012	0.007 ± 0.021
CASM3C:CD106/VCAM-1	0.001 ± 0.0028	-0.011 ± 0.0014	0.0135 ± 0.005	-0.041	-0.028 ± 0.0042	-0.0385 ± 0.015	-0.0895 ± 0.019	-0.0095 ± 0.005	-0.02 ± 0.0014	-0.025 ± 0.0057	-0.0885 ± 0.028	-0.0715 ± 0.07	-0.12 ± 0.067	-0.128 ± 0.02	-0.0075 ± 0.026	-0.001 ± 0.024	-0.074 ± 0.034	-0.023 ± 0.016	-0.057 ± 0.0057	-0.031 ± 0.075
CASM3C:SRB	0.002 ± 0.0014	-0.0055 ± 0.0078	-0.0125 ± 0.0035	0.002	-0.02 ± 0.0099	-0.061 ± 0.0057	-0.008 ± 0.0042	-0.0005 ± 0.011	-0.0065 ± 0.013	-0.0095 ± 0.013	0.0075 ± 0.015	0.005 ± 0.0014	-0.001 ± 0.014	0 ± 0.0014	0.008	0.003 ± 0.0057	-0.04 ± 0.0042	0 ± 0.014	-0.0005 ± 0.0092	-0.005 ± 0.033
HDF3CGF:CD106/VCAM-1	-0.061 ± 0.013	-0.046 ± 0.016	-0.0335 ± 0.0035	-0.335	-0.089 ± 0.037	-0.228 ± 0.0014	-0.244 ± 0.013	0.0315 ± 0.018	-0.0275 ± 0.021	-0.0325 ± 0.059	-0.0565 ± 0.079	-0.29 ± 0.029	-0.453 ± 0.14	-0.676 ± 0.061	-0.0135 ± 0.013	0.004 ± 0.044	-0.681 ± 0.28	-0.043 ± 0.082	-0.0425 ± 0.026	-0.168 ± 0.022
HDF3CGF:SRB	0.0175 ± 0.033	-0.0095 ± 0.026	-0.04 ± 0.055	-0.644	-0.027 ± 0.0042	-0.0055 ± 0.039	-0.397 ± 0.28	0.003 ± 0.073	0.0335 ± 0.0035	0.02 ± 0.038	-0.017 ± 0.059	-0.011 ± 0.072	-0.0635 ± 0.079	-0.291 ± 0.028	0.0015 ± 0.067	-0.003 ± 0.025	-0.139 ± 0.13	0.0085 ± 0.037	-0.011 ± 0.0014	0.0105 ± 0.028
KF3CT:SRB	-0.0215 ± 0.013	-0.032 ± 0.011	-0.0335 ± 0.0078	-0.288	-0.004 ± 0.0042	-0.014 ± 0.02	-0.053	-0.0125 ± 0.00071	-0.0015 ± 0.0035	-0.0035 ± 0.012	0.003 ± 0.0014	-0.002 ± 0.0085	0.0045 ± 0.018	0.003 ± 0.0057	-0.0035 ± 0.0064	-0.0025 ± 0.0035	-0.004 ± 0.0028	-0.013 ± 0.0099	-0.01 ± 0.013	0.0035 ± 0.015
HDF3CGF:EGFR	-0.0165 ± 0.016	-0.056 ± 0.0057	-0.034 ± 0.0028	-0.044	-0.029 ± 0.057	-0.146 ± 0.038	-0.31 ± 0.071	-0.0265 ± 0.015	-0.016 ± 0.054	-0.016 ± 0.0085	-0.019 ± 0.023	0.017 ± 0.0014	0.045 ± 0.013	-0.0155 ± 0.0078	0.009 ± 0.041	0.0125 ± 0.019	-0.0555 ± 0.035	0.0025 ± 0.026	-0.006 ± 0.038	0.015 ± 0.047
lMphg:CD40	-0.009 ± 0.016	-0.0175 ± 0.0092	-0.0135 ± 0.005	-0.029	-0.0265 ± 0.019	-0.202 ± 0.03	-0.037 ± 0.018	-0.0235 ± 0.044	-0.0135 ± 0.012	-0.0265 ± 0.032	-0.0205 ± 0.005	-0.022 ± 0.018	-0.032 ± 0.021	-0.051 ± 0.024	-0.0065 ± 0.026	-0.0095 ± 0.019	-0.0235 ± 0.022	-0.017 ± 0.014	-0.0245 ± 0.029	-0.018 ± 0.025
CASM3C:CXCL9/MIG	-0.0085 ± 0.011	-0.0195 ± 0.013	0.0135 ± 0.0021	-0.018	-0.013 ± 0.02	-0.0335 ± 0.011	-0.042 ± 0.0028	0.0015 ± 0.012	-0.0115 ± 0.0064	-0.0145 ± 0.005	-0.014 ± 0.0042	-0.0045 ± 0.028	-0.0035 ± 0.03	-0.154 ± 0.031	-0.003 ± 0.0014	-0.0085 ± 0.0021	-0.0305 ± 0.046	0.016 ± 0.028	0.022 ± 0.03	0.0575 ± 0.09
CASM3C:CXCL8/IL-8	-0.0095 ± 0.015	-0.0055 ± 0.013	-0.002 ± 0.0099	-0.02	0.004 ± 0.011	0.029	-0.008 ± 0.0099	-0.008 ± 0.0042	-0.01 ± 0.016	0.0055 ± 0.03	0.0175 ± 0.021	0.025 ± 0.0028	0.0415 ± 0.03	-0.015 ± 0.0028	0.0005 ± 0.015	0.004 ± 0.018	0 ± 0.0014	0.0105 ± 0.022	0.0145 ± 0.028	0.0255 ± 0.06
HDF3CGF:M-CSF	-0.0385 ± 0.0021	-0.0225 ± 0.036	-0.0095 ± 0.013	-0.454	-0.024 ± 0.055	-0.239 ± 0.049	-0.258 ± 0.0092	-0.0005 ± 0.00071	-0.0125 ± 0.005	0.022 ± 0.037	-0.039	-0.079 ± 0.041	-0.254 ± 0.076	-0.588 ± 0.054	0 ± 0.02	0.0355 ± 0.0092	-0.225 ± 0.03	-0.015 ± 0.0085	-0.0295 ± 0.0064	-0.074 ± 0.014
